Reference: patent US20140328940A1, “MODULATION OF AXON DEGENERATION” (Genentech, Inc., priority 2009, published 2014)
“Also recorded” adds a separate entry of the source. *1 amine or outer side, *2 acyl side, *3 side chain or, on linkers, in order; H or OH if unused. Where a SMILES comes first, the peptide text is derived from it. Bridges are numbered along the chain shown (N, C = ends). Roman numbers before positions name the chains, in order. [ ]: non-standard residue; d: D form. Actinocin(9to1) = Cc1c2oc3c(C)ccc(C(=O)[*:1])c3nc-2c(C(=O)[*:2])c(N)c1=O; NMeV = CN[C@H](C(=O)O)C(C)C; Sar = CNCC(=O)O

Experiments:
Format in all cases: cell-based, mouse
[1] = tested on: DRG neurons (axon vs. cell body compartment); assay: Campenot chamber local axon degeneration (anti-NGF in axon compartment)
Method: Teflon dividers (Tyler Research) were cleaned by washing in water and wiping them clean of any residual grease. Dividers were then soaked in Nochromix (Godax Laboratories)/sulfuric acid overnight, rinsed five times in distilled and autoclaved water (SQ water), boiled for 30 minutes, and then air-dried before use
Mouse laminin (5 μg/ml in sterile filtered water; Invitrogen) was added to PDL coated 35 mm dishes (BD Biosciences) and they were incubated for 1 hour at 37° C., followed by two rinses in SQ water. The dishes were vacuum-dried and then air-dried in a laminar flow hood for 15 minutes. Prepared dishes were then scored with a pin rake (Tyler Research). […] High vacuum grease (VWR) was added to each Teflon divider under a dissection scope. The laminin coated PDL dishes were inverted and dropped onto the Teflon divider, with additional pressure added by use of a toothpick in the non-track-containing regions. Dishes were incubated for 1 hour at 37° C. Five hundred microliters of NBM+MC (50 ng/ml NGF) solution was added to each of the side compartments, and a grease barrier was added in front of the center cell slot.
Free E13.5 spinal cords were dissected from mouse embryos and placed into NBM+MC (25 ng/ml NGF) solution. DRGs were detached from the spinal cord with a tungsten needle. An NBM+MC-lubricated P200 pipette was used to move DRGs into a 1.5 ml tube. DRGs were pelleted with a tabletop centrifuge for 30 seconds. The supernate was discarded and 0.05% Trypsin/EDTA (cold) was added. The pellet was resolubilized with a pipette and incubated at 37° C. for 15 minutes with constant agitation (650 RPM). The sample was again centrifuged and the supernate discarded. The pellet was resuspended in warm NBM+MC (50 ng/ml NGF) solution and triturated with a flamed glass pipette 20 times, followed by trituration with a fire-bored glass pipette another 20 times. The samples were again centrifuged and the resulting pellets were resuspended in 0.5 ml NBM+MC (50 ng/ml NGF) solution. The cells were diluted to a final concentration of 2.5×10^6 cells/ml. The cell suspensions were loaded into a 1 ml syringe with a 22 gauge needle. The center slot of the Campenot divider was filled using the syringe (to a volume of at least 50 μl). The Campenot chamber was incubated overnight at 37° C. 2.5 ml NGF+MC (50 ng/ml NGF) solution was added to the center compartment and the grease gate was removed. The outer medium (cell body compartment) was replaced after three days with 2.5 ml NBM+MC medium (with 25 ng/ml NGF). After five days in culture, one distal compartment was washed three times with warmed NBM+MC (no NGF) solution. After the third wash, 500 μl NBM+MC (no NGF) solution was added to the axon compartment in combination with either 0.5% DMSO or an inhibitor. The cell body compartment was replaced with 2.5 ml NBM+MC medium (with 25 ng/ml NGF) containing either 0.5% DMSO or inhibitor.
After 28 hours of anti-NGF antibody treatment, 8% PFA/30% sucrose solution (see above) was added directly to the culture medium at a 1:1 dilution and incubated for 30 minutes. The Teflon divider was removed after the first 15 minutes of addition. The system was washed once with 2.5 ml PBS prior to immunostaining. Neurons were blocked in 5% BSA/0.2% triton in PBS for 30 minutes. The primary antibody Tuj1 (Covance) was added to a final dilution of 1:1000 in PBS containing 2% BSA and incubated overnight at 4° C. The dish was washed once with PBS. […] The dish was washed twice with PBS, and a 22×22 mm coverslip (VWR) was added with 350 μl of fluoromount G (Electron Microscopy Sciences). The neurons were visualized by use of a fluorescence microscope.
As described above, E13.5 DRGs were isolated and grown for 5 days in a Campenot chamber.

DRGs [2] = assay: anti-NGF antibody (NGF withdrawal) screen for inhibitors of axon degeneration in DRG explants; settings: inhibitor 100 μM or 10 μM added 1 hour before 25 μg/ml anti-NGF; 20 hours; actin stain
Method: The anti-NGF antibody model described above in Example 1 was used in a screen for inhibitors of neuron or axon degeneration. A library of more than 400 small molecules (Tocris Bioscience) was tested to see which, if any, modulate degeneration observed in the presence of anti-NGF antibodies.
Mouse E13.5 embryos were dissected and placed into L15 medium (Invitrogen). The spinal cord was dissected out from the embryos with DRGs attached. The spinal cords with DRGs attached were placed into L15 medium+5% goat serum (Gibco) on ice. The DRGs were removed using a tungsten needle and the remaining spinal cord was disposed of. Eight well slides were filled with N3-F12 solution (23 ml Ham's F12, 1 ml N3 supplement, and 1 ml 1 M glucose) to which was added 25 ng/ml NGF (Roche). (N3 supplement was made by dilution of N3 100× concentrate, which was made by mixing the following ingredients, in the following order: 5.0 ml Hank's buffered saline solution (HBSS; Ca, Mg free; Invitrogen), 1.0 ml bovine serum albumin (10 mg/ml in HBSS=150 μm), 2.0 ml Transferrin (T1147-1G, human, 100 mg/ml in HBSS=1.1 mM), 1.0 ml sodium selenite (S9133-1MG, 0.01 mg/ml in HBSS 58 μM), 0.4 ml putrescine dihydrochloride (P5780-5G, 80 mg/ml in HBSS=500 mM), 0.2 ml progesterone (P8783-5G, 0.125 mg/ml in absolute ethanol=400 μM), 0.02 ml corticosterone (C2505-500MG, 2 mg/ml in absolute ethanol=5.8 mM), 0.1 ml triiodothyonine, sodium salt (T6397-100MG, 0.2 mg/ml in 0.01 N NaOH=300 μM), 0.4 ml insulin (16634-250MG, bovine pancreas, 241 U/mg, 25 mg/ml in 20 mM HCl=4.4 mM), for a total volume of 10.02 ml (can be stored at −20° C.). An N3 supplement stock was made by combining the following: 10 ml Pen/Strep (100×, Gibco), 10 ml glutamine (200 mM, Gibco), 10 ml MEM vitamins (100×, Gibco), 10 ml N3 concentrate (100×, see above), for a total volume of 40 ml. The mixture was filter sterilized using a 0.22 μm filter, and 1-2 ml aliquots were stored at −20° C.).
The DRGs were sectioned into halves and placed in the center of each well of an 8-chamber slide (BD Biocoat PDL/Laminin coated glass, Becton Dickinson). The DRGs were permitted to attach to the slide at room temperature for 5-10 minutes, followed by an overnight incubation at 37° C. Inhibitors of choice were added at a concentration of 100 μM (top row) or 10 μM (bottom row) 1 hour before adding anti NGF antibodies. The anti-NGF antibodies were added to the right half of the slide (4 wells) at a concentration of 25 μg/ml. After incubation for 20 hours at 37° C., the slides were fixed with 30% sucrose/8% paraformaldehyde (PFA) by adding 250 μl of the fix solution directly to the 250 μl of culture medium. (To make the 30% sucrose/8% PFA solution, the following ingredients were added to a 600 ml beaker including a stir bar: 250 ml 16% PFA (cat#15710-S, Electron Microscopy Sciences), 50 ml 10×PBS pH 7.4, and 150 g sucrose. The solution was mixed under low heat until dissolved, and then 6-8 drops of 1 M NaOH were added to bring the pH to 7.4. The volume was then brought to 500 ml with water in a graduated cylinder. The solution was mixed well, placed in aliquots, and frozen.) The s ides were fixed for 30 minutes, followed by washing once with PBS. All cells were labeled with an actin stain (Alexa-568 conjugated phalloidin; 1:40; Invitrogen), a membrane dye (DiO; 1:200; Invitrogen), and a DNA stain (Hoechst 33258; 1:10,000; Invitrogen) in 0.1% Triton and 1% goat serum for 2 hours at room temperature. […]

DRG explants = assay: pan-JNK inhibitors in NGF withdrawal assay on DRG explants; settings: for concentration at which most protective: DRG explants, NGF withdrawal; for protection of DRG explants from NGF-dependent degeneration: treated with anti-NGF and inhibitor
Method: If DLK inhibition protects neurons from degeneration through limiting the phosphorylation of JNK2 and JNK3, then inhibitors of JNK2 or JNK3 should also protect neurons from cell death and axon degeneration. The ability of direct JNK inhibition to protect neurons against NGF withdrawal-dependent degeneration was also assessed. DRG explants were treated with anti-NGF and either pan-JNK inhibitor JNKV or JNKVIII, prior to assessment in the NGF withdrawal assay described above.

DRGs [3] = assay: G-protein/GPCR inhibitors in NGF withdrawal-induced degeneration in DRGs; settings: 0.1 μM, 1 μM, 10 μM or 100 μM (FIGS. 49 and 50)
Method: The assays described herein identified several inhibitors of G-proteins and G-protein coupled receptors (GPCRs) that decrease degeneration in neurons. Experiments were performed in DRGs to verify the role of G-proteins and GPCRs in degeneration pathways. The experimental protocols used in these experiments are the same as those described in Example 14. Pertussis toxin and SCH 202676 were purchased from Tocris Bioscience.

[4] = tested on: cerebellar granule neurons (CGNs); assay: serum deprivation/KCl reduction degeneration of cerebellar granule neurons; settings: 5 μM; 5 mM KCl, 24 hours
[5] = inhibitor 5 μM in axon compartment
[6] = inhibitor 5 μM in cell body compartment

Compound: COc1ccc(CNC(=O)Nc2ncc([N+](=O)[O-])s2)cc1 [AR-A014418]
- Axon Compartment (protection of NGF-deprived axons) ([1]; inhibitor 20 μM in axon compartment): No (1)
- Cell Body Compartment (protection of NGF-deprived axons) ([1]; inhibitor 20 μM in cell body compartment): Yes (1)

Compound: Cc1c2oc3c(C)ccc(C(=O)N[C@@H]4C(=O)N[C@H](C(C)C)C(=O)N5CCC[C@H]5C(=O)N(C)CC(=O)N(C)[C@@H](C(C)C)C(=O)O[C@@H]4C)c3nc-2c(C(=O)N[C@@H]2C(=O)N[C@H](C(C)C)C(=O)N3CCC[C@H]3C(=O)N(C)CC(=O)N(C)[C@@H](C(C)C)C(=O)O[C@@H]2C)c(N)c1=O [Actinomycin D] (I: T[dV]P[Sar][NMeV] / II: T[dV]P[Sar][NMeV]; ester I:1-I:C, II:1-II:C; linker I:N-II:N via Actinocin(9to1))
- formation of varicosities in locally NGF-deprived axons [1]: large number of axons with varicosities, as well as fragmented axons
- Axon Compartment (protection of NGF-deprived axons) ([1]; inhibitor 15 μM in axon compartment): No (4)
- Axon Compartment (protection of NGF-deprived axons) ([1]; inhibitor 15 μM in axon compartment, listed as Act D): failed to prevent degeneration
- Cell Body Compartment (protection of NGF-deprived axons) ([1]; inhibitor 15 μM in cell body compartment): Yes (4)
- Cell Body Compartment (protection of NGF-deprived axons) ([1]; inhibitor 15 μM in cell body compartment, listed as Act D): did not degenerate; also recorded: protected from local degeneration

Compound: OC(CN1CCNCC1)Cn1c2ccc(Br)cc2c2cc(Br)ccc21 (centres unmarked) [Bax Channel Blocker]
- Comments (observations on compounds found to protect against neurodegeneration) (DRGs [2]): Cell bodies detach

Compound: C[C@@H]1C[C@@H]([C@H](O)CC2CC(=O)NC(=O)C2)C(=O)[C@@H](C)C1 [Cycloheximide]
- Axon Compartment (protection of NGF-deprived axons) [1, 5]: No (2)
- Cell Body Compartment (protection of NGF-deprived axons) [1, 6]: Yes (2)

Compound: C=C[C@@]1(C)CC(=O)[C@]2(O)[C@@]3(C)[C@@H](O)CCC(C)(C)[C@@H]3[C@H](O)[C@H](OC(C)=O)[C@@]2(C)O1 [Forskolin]
- Axon Compartment (protection of NGF-deprived axons) ([1]; inhibitor 3 μM in axon compartment): Yes (2)
- Cell Body Compartment (protection of NGF-deprived axons) ([1]; inhibitor 3 μM in cell body compartment): Yes (2)

Compound: O=C1NC(=O)C(c2cn(CCCO)c3ncccc23)=C1c1cnccn1 [GSK3 inhibitor XI]
- Axon Compartment (protection of NGF-deprived axons) ([1]; inhibitor 30 μM in axon compartment, anti-NGF on axons 28 hours, number in parentheses not explained): No (2)
- Cell Body Compartment (protection of NGF-deprived axons) ([1]; inhibitor 30 μM in cell body compartment, anti-NGF on axons 28 hours, number in parentheses not explained): Yes (2)

Compound: CCOc1nc(NC(=O)Cc2cc(OC)ccc2OC)cc(N)c1C#N [JNKVIII]
- concentration at which most protective (DRG explants): 4 µM
- protection of DRG explants from NGF-dependent degeneration (DRG explants): able to protect

Compound: N#C/C(=C1/Nc2ccccc2S1)c1ccnc(NCCc2cccnc2)n1 [JNKV]
- concentration at which most protective (DRG explants): 5 µM
- protection of DRG explants from NGF-dependent degeneration (DRG explants): able to protect

Compound: C=C[C@@]1(C)CC(=O)[C@]2(O)[C@@]3(C)[C@@H](O)CCC(C)(C)[C@@H]3[C@H](OC(=O)CCN(C)C)[C@H](OC(C)=O)[C@@]2(C)O1 [NKH 477]
- Comments (observations on compounds found to protect against neurodegeneration) (DRGs [2]): Partial

Compound: C[S+]([O-])c1ccc(-c2nc(-c3ccc(F)cc3)c(-c3ccncc3)[nH]2)cc1.Cl (centres unmarked) [SB 203580 HCl]
- Comments (observations on compounds found to protect against neurodegeneration) (DRGs [2]): Partial

Compound: CN=c1nc(-c2ccccc2)n(-c2ccccc2)s1 [SCH 202676]
- NGF withdrawal-induced degeneration in DRGs (DRGs [3]): decreases

Compound: O=C1c2ccccc2-c2n[nH]c3cccc1c23 [SP600125]
- Axon Compartment (protection of NGF-deprived axons) [1, 5]: Yes (1)
- Cell Body Compartment (protection of NGF-deprived axons) [1, 6]: Yes (1)
- Axon Compartment (protection of NGF-deprived axons) ([1]; inhibitor 10 μM in axon compartment): Yes (1)
- Cell Body Compartment (protection of NGF-deprived axons) ([1]; inhibitor 10 μM in cell body compartment): Yes (1)
- protection of cerebellar granule neurons from serum deprivation/KCl reduction [4]: protect

Compound: C[C@@H](NC(=O)/C(C#N)=C/c1ccc(O)c(O)c1)c1ccccc1 [Tyrphostin B44]
- Comments (observations on compounds found to protect against neurodegeneration) (DRGs [2]): Partial

Compound: CCN(c1ccccc1)c1cc(NC)[n+](C)c(C)n1 [ZD7288]
- Axon Compartment (protection of NGF-deprived axons) [1, 5]: No (3)
- Cell Body Compartment (protection of NGF-deprived axons) [1, 6]: Yes (3)
